Our source for the TGI values is PubChem BioAssay (NCI).

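Step 1: Grow cells in 96-well plates. Step 2: Expose to compound for 48 hours at 5 concentrations. Step 3: Interpolate endpoints linearly; if unreached, use highest concentration. Definition used: TGI = concentration required for complete inhibition of growth.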

What all share (assay): DTP human tumour cell line panel, 48 h
In assay [1] the test system is 786-0 renal.
Assay [2] relates to A498 renal.
Assay [3] concerns BT-549 breast.
Assay [4] has as its system DU-145 prostate.
Assay [5] concerns HCC-2998 colon.
In assay [6] the test system is HS 578T breast.
The test system of assay [7] is IGROV1 ovarian.
Assay [8] has as its system KM12 colon.
In assay [9] the test system is NCI-H226 lung.
The test system of assay [10] is NCI-H23 lung.
Assay [11] relates to OVCAR-5 ovarian.
In assay [12] the test system is RPMI-8226 leukemia.
In assay [13] the test system is SF-268 CNS.
The subject of assay [14] is T-47D breast.

Regarding `COC(=O)C1=C(O)C(C(=O)OC)[C@]2(O)[C@H](C(=O)OC)[C@H]1C[C@@H](c1ccc(O)cc1)[C@H]2C(=O)OC` (stereo not given in full), the TGI was greater than 100 µM in assay [1]; greater than 100 µM in assay [2]; 91.5 µM in assay [3]; 71.6 µM in [4]; 46.5 µM in [5]; 87.3 µM in assay [6]. Further, the total growth inhibition concentration (TGI) in assay [7] was greater than 100 µM; in [8] it was 49.9 µM; in assay [9], greater than 100 µM; in assay [10], greater than 100 µM; in [11] it was 97.1 µM; in assay [12] it was greater than 100 µM. For the same compound, the TGI in [13] and in [14] was greater than 100 µM throughout.
Consider `c1ccc2nc3c(nc2c1)sc1nc2ccccc2n13`, for which the TGI in [1], in [2], in assay [3], in assay [4], in assay [5] and in [6] was greater than 100 µM in each case. Also, the total growth inhibition concentration (TGI) in assay [7], in assay [8], in [9], in assay [10], in assay [11] and in assay [12] was greater than 100 µM in each case. In addition, the TGI in [13] and in [14] was greater than 100 µM in each case.
As for `Cc1cc2c(c(C=Nc3ccc(N(C)C)cc3)c1)OC1(C=C2)Oc2ccccc2C(=O)N1C` (stereo not given), the TGI was 28.2 µM in [1]; 42.1 µM in assay [2]; 29.4 µM in assay [3]; 27.9 µM in assay [4]; 30.2 µM in assay [5]; greater than 90.4 µM in [6]. Also, the TGI was 27.1 µM in [7]; 31 µM in assay [8]; 70.2 µM in [9]; 28.4 µM in [10]; 32.4 µM in [11]; 31.1 µM in assay [12]. Besides, the figures for the TGI in assay [13] and in assay [14] were 45.4 µM and 57.5 µM, respectively.
As to `CC(C)(C)c1cc(C(C)(C)C)c(P=C(Cl)Cl)c(C(C)(C)C)c1` (stereo not given), the TGI in assay [1], in assay [2], in [3], in assay [4], in [5] and in assay [6] was greater than 100 µM throughout. The TGI in assay [7], in assay [8], in [9], in assay [10], in assay [11] and in [12] was greater than 100 µM in each case. Further, the concentration for total growth inhibition (TGI) in [13] and in assay [14] was greater than 100 µM throughout.
With `N#Cc1c(Cl)cccc1Oc1ccc(S(=O)(=O)/N=C(\NO)Nc2ccc(Cl)cc2)cc1`, the TGI in assay [1] is 26.5 µM; in [2] it was 30.6 µM; in [3], 30.9 µM; in assay [4] it was 32.9 µM; in [5] it was 29 µM; in [6] it was 71.1 µM. Also, the TGI was found to be 34.4 µM in [7]; 31.2 µM in [8]; 48 µM in assay [9]; 34.6 µM in [10]; 34.9 µM in [11]; 71.2 µM in assay [12]. Besides, the TGI amounted to 46.9 µM in [13] and 28.3 µM in [14].
On to `Cc1nc2ccc(S(=O)(=O)Nc3ccccn3)cc2c(=O)n1NS(=O)(=O)c1ccccn1`, for which the TGI in assay [1], in [2], in [3], in [4], in assay [5] and in assay [6] was greater than 100 µM throughout. Also, the TGI in [7], in [8], in [9], in assay [10], in assay [11] and in [12] was greater than 100 µM each time. The TGI in assay [13] and in assay [14] was greater than 100 µM throughout.
Turning to `COc1ccccc1/[N+]([O-])=C/c1ccccc1OC(=S)S`, the TGI in [1] was 85.9 µM; in assay [2], greater than 100 µM; in assay [3], greater than 100 µM; in assay [4] it was greater than 100 µM; in assay [5], 80.4 µM; in assay [6] it was greater than 100 µM. Besides, the TGI in [7] was 77.2 µM; in [8], greater than 100 µM; in assay [9], greater than 100 µM; in assay [10], greater than 100 µM; in assay [11], greater than 100 µM; in [12] it was 63.7 µM. For the same compound, the TGI in [13] and in assay [14] was greater than 100 µM each time.
In the case of `O=C1CSC2(CC(/C=C/c3cccc(Br)c3)=NN2c2cccc(S(=O)(=O)O)c2)N1c1nc2ccccc2s1` (stereo not given), the concentration for total growth inhibition (TGI) in assay [1], in assay [2], in assay [3], in [4], in assay [5] and in [6] was greater than 100 µM throughout. Also, the TGI in [7], in assay [8], in assay [9], in assay [10], in assay [11] and in assay [12] was greater than 100 µM in each case. Also, the TGI in assay [13] and in assay [14] was greater than 100 µM each time.
`CCOc1cc(NC(C)=O)ccc1C(=O)NN1C(=O)C(Cl)C1c1ccc(O)c(OC)c1` (stereo not given): the TGI in [1] stood at 26 µM; in assay [2], 28.4 µM; in [3], 21.9 µM; in [4], 29 µM; in [5], 32.2 µM; in assay [6], 51.5 µM. Further, the total growth inhibition concentration (TGI) turned out to be 28.2 µM in assay [7]; 33.6 µM in assay [8]; 48.3 µM in [9]; 25.4 µM in [10]; 33.9 µM in assay [11]; 40.5 µM in assay [12]. Also, the TGI was 35.9 µM in [13] and 30.8 µM in assay [14].
`CCOC(=O)NC(OCCN(C)C)(C(F)(F)F)C(F)(F)F`: the TGI in assay [1], in assay [2], in assay [3], in assay [4], in assay [5] and in assay [6] was greater than 100 µM each time. The concentration for total growth inhibition (TGI) in assay [7], in [8], in [9], in assay [10], in assay [11] and in assay [12] was greater than 100 µM in each case. Besides, the TGI in assay [13] and in [14] was greater than 100 µM in each case.
